Assays:
[1] = molecular target: T1, human adenosine A1 receptor (Homo sapiens, UniProt P30542); assay: Inhibition binding assay, human adenosine A1 receptor membranes, [3H]DPCPX; settings: 1 nM [3H]DPCPX, 25° C., 1 h; IC50 converted to Ki with Cheng-Prusoff; read-out: A1 pKi (converted)
T1 construct: expressed in transfected cells; host or cells: HEK293 cells infected with BacMam (the same paragraph also labels the preparation CHO-hA1)
T1 sequence (P30542 1-326): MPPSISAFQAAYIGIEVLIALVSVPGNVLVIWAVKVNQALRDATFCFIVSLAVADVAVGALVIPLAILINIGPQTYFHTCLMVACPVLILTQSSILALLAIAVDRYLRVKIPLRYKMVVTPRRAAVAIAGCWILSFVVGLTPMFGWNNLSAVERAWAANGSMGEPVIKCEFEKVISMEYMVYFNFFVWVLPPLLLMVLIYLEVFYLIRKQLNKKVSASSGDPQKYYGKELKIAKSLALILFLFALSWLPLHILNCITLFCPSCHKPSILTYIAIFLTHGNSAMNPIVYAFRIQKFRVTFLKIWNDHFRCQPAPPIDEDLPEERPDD
Description: Inhibition binding assays were performed using 0.2 μg of membranes prepared from HEK293 cells infected with BacMam human adenosine A2A receptor or 1.4 μg of membranes prepared from HEK293 cells infected with BacMam human adenosine A1 receptor. Membranes were incubated in 50 mM Tris-HCl (HEK293-hA2A; pH 7.4) or 50 mM Tris-HCl, 100 mM NaCl, 10 mM MgCl2 (CHO-hA1; pH 7.4) in the presence of varying concentrations of test compound and 1 nM [^3H]ZM241385 (HEK293-hA2A) or [^3H]DPCPX (CHO-hA1) at 25° C. for 1 h. The assay was then terminated by rapid filtration onto GF/B grade Unifilter plates using a TomTec cell harvester, followed by 5×0.5 ml washes with ddH2O. Nonspecific binding was defined in the presence of 1 μM CGS15943 (HEK293-hA2A) or 1 μM DPCPX (CHO-hA1). Bound radioactivity was determined by liquid scintillation counting and inhibition curves were analysed using a four-parameter logistic equation. IC50 values were converted to Ki values with the Cheng-Prusoff equation using a KD value derived from saturation binding studies.

[2] = molecular target: T2, human adenosine A2A receptor (Homo sapiens, UniProt P29274); assay: Inhibition binding assay, human adenosine A2A receptor membranes, [3H]ZM241385; settings: 1 nM [3H]ZM241385, HEK293-hA2A membranes, 25° C., 1 h; IC50 converted to Ki with Cheng-Prusoff; read-out: A2A pKi (converted)
T2 construct: expressed in transfected cells; host or cells: HEK293 cells infected with BacMam
Summary of the method: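 Membranes from BacMam-infected HEK293 cells (0.2 μg A2A, 1.4 μg A1) incubated 1 h at 25° C with test compound and 1 nM [3H]ZM241385 (A2A; 50 mM Tris-HCl pH 7.4) or [3H]DPCPX (A1; plus 100 mM NaCl, 10 mM MgCl2). Nonspecific: 1 μM CGS15943 or DPCPX. Filtration, scintillation; IC50 converted to Ki via Cheng-Prusoff.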

T2 sequence (P29274 whole entry): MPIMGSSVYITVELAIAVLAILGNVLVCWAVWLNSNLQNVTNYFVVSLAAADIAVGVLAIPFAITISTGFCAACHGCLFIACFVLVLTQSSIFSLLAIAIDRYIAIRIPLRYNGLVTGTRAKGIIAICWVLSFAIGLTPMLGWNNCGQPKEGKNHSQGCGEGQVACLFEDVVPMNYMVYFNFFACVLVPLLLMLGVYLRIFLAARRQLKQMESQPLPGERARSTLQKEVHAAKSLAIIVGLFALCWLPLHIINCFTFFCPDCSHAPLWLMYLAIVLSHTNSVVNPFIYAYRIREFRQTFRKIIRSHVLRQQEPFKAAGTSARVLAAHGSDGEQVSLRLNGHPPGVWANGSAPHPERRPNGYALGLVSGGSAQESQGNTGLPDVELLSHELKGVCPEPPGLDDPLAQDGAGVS

Row | Compound | Ki [1] [nM] | Ki [2] [nM]
1 | Cc1cc(-c2c(-c3ccccc3)nc(N)n3c(=O)n(C4CSCc5ccccc54)nc23)cc(C)n1 (stereo not drawn) [Example 1-13, 5-amino-8-(2,6-dimethyl-4-pyridyl)-2-isothiochroman-4-yl-7-phenyl-[1,2,4]triazolo[4,3-c]pyrimidin-3-one] | 158 | 1.26
2 | Cc1cc(-c2c(Cl)nc(N)n3c(=O)n(CCC(F)(F)F)nc23)cc(C)n1 [Example 3-5, 5-amino-7-chloro-8-(2,6-dimethyl-4-pyridyl)-2-(3,3,3-trifluoropropyl)-[1,2,4]triazolo[4,3-c]pyrimidin-3-one] | > 3160 | 631
3 | Cc1cc(-c2c(-c3ccc(F)cc3)nc(N)n3c(=O)n(Cc4cccnn4)nc23)cc(CO)n1 [Example 1-58, 5-amino-7-(4-fluorophenyl)-8-[2-(hydroxymethyl)-6-methyl-4-pyridyl]-2-(pyridazin-3-ylmethyl)-[1,2,4]triazolo[4,3-c]pyrimidin-3-one] | 631 | 12.6
4 | Cc1cc(-c2c(-c3ccccc3)nc(N)n3c(=O)n(CCN(C)C4CC4)nc23)cc(C)n1 [Example 2-19, 5-amino-2-[2-[cyclopropyl(methyl)amino]ethyl]-8-(2,6-dimethyl-4-pyridyl)-7-phenyl-[1,2,4]triazolo[4,3-c]pyrimidin-3-one] | 398 | 3.98
5 | Cc1cc(-c2c(-c3ccccc3)nc(N)n3c(=O)n(C(C)Cc4ccccc4)nc23)cc(C)n1 (stereo not drawn) [Example 1-81, 5-amino-8-(2,6-dimethyl-4-pyridyl)-2-(1-methyl-2-phenyl-ethyl)-7-phenyl-[1,2,4]triazolo[4,3-c]pyrimidin-3-one] | 631 | 25.1
6 | Cc1cc(-c2c(-c3ccccc3)nc(N)n3c(=O)n(Cc4ccccc4C)nc23)cc(C)n1 [Example 1-17, 5-amino-8-(2,6-dimethyl-4-pyridyl)-2-(o-tolylmethyl)-7-phenyl-[1,2,4]triazolo[4,3-c]pyrimidin-3-one] | 1 | 0.316
7 | Cc1cc(-c2c(-c3ccccc3)nc(N)n3c(=O)n(CCN(C)C4CCN(c5ccccc5)CC4)nc23)cc(C)n1 [Example 1-93, 5-amino-8-(2,6-dimethyl-4-pyridyl)-2-[2-[methyl-(1-phenyl-4-piperidyl)amino]ethyl]-7-phenyl-[1,2,4]triazolo[4,3-c]pyrimidin-3-one] | 631 | 31.6
8 | Cc1cc(-c2c(-c3ccccc3)nc(N)n3c(=O)[nH]nc23)cc(C)n1 [Example 2-1, 5-amino-8-(2,6-dimethyl-4-pyridyl)-7-phenyl-2H-[1,2,4]triazolo[4,3-c]pyrimidin-3-one] | 79.4 | 5.01
9 | Cc1cc(-c2c(-c3ccccc3)nc(N)n3c(=O)n(C(CNCC(F)(F)F)c4ccccc4)nc23)cc(C)n1 (stereo not drawn) [Example 1-31, 5-amino-8-(2,6-dimethyl-4-pyridyl)-7-phenyl-2-[1-phenyl-2-(2,2,2-trifluoroethylamino)ethyl]-[1,2,4]triazolo[4,3-c]pyrimidin-3-one] | 316 | 10
10 | Cc1cc(-c2c(-c3ccccc3)nc(N)n3c(=O)n(Cc4ccc(F)cn4)nc23)cc(N(C)C)n1 [Example 1-71, 5-amino-8-[2-(dimethylamino)-6-methyl-4-pyridyl]-2-[(5-fluoro-2-pyridyl)methyl]-7-phenyl-[1,2,4]triazolo[4,3-c]pyrimidin-3-one] | 631 | 20
11 | Cc1cc(-c2c(-c3ccccc3)nc(N)n3c(=O)n(Cc4cccnn4)nc23)cc(CO)n1 [Example 1-56, 5-amino-8-[2-(hydroxymethyl)-6-methyl-4-pyridyl]-7-phenyl-2-(pyridazin-3-ylmethyl)-[1,2,4]triazolo[4,3-c]pyrimidin-3-one] | 200 | 3.98
12 | Cc1cc(-c2c(-c3ccccc3)nc(N)n3c(=O)n(CC45CC(C4)C5)nc23)cc(CO)n1 [Example 2-63, 5-amino-2-(3-bicyclo[1.1.1]pentanylmethyl)-8-[2-(hydroxymethyl)-6-methyl-4-pyridyl]-7-phenyl-[1,2,4]triazolo[4,3-c]pyrimidin-3-one] | 316 | 1.26
13 | COC(=O)C1(Cn2nc3c(-c4cc(C)nc(C)c4)c(-c4ccccc4)nc(N)n3c2=O)CCCC1 [Example 2-29, methyll-[[5-amino-8-(2,6-dimethyl-4-pyridyl)-3-oxo-7-phenyl-[1,2,4]triazolo[4,3-c]pyrimidin-2-yl]methyl]cyclopentanecarboxylate] | 126 | 0.501
14 | Cc1cc(-c2c(-c3ccccc3)nc(N)n3c(=O)n(Cc4ncc(F)cc4Cl)nc23)cc(CO)n1 [Example 1-50, 5-amino-2-[(3-chloro-5-fluoro-2-pyridyl)methyl]-8-[2-(hydroxymethyl)-6-methyl-4-pyridyl]-7-phenyl-[1,2,4]triazolo[4,3-c]pyrimidin-3-one] | 200 | 1
15 | Cc1cc(-c2c(-c3ccccc3)nc(N)n3c(=O)n(Cc4ccc(F)cn4)nc23)cc(C(F)(F)F)n1 [Example 1-72, 5-amino-2-[(5-fluoro-2-pyridyl)methyl]-8-[2-methyl-6-(trifluoromethyl)-4-pyridyl]-7-phenyl-[1,2,4]triazolo[4,3-c]pyrimidin-3-one] | 126 | 2.51
16 | Cc1cc(-c2c(-c3ccccc3)nc(N)n3c(=O)n(Cc4ccncc4)nc23)cc(C)n1 [Example 1-12, 5-amino-8-(2,6-dimethyl-4-pyridyl)-7-phenyl-2-(4-pyridylmethyl)-[1,2,4]triazolo[4,3-c]pyrimidin-3-one] | 794 | 10
17 | Cc1cc(-c2c(-c3ccccc3)nc(N)n3c(=O)n(CCC#N)nc23)cc(C)n1 [Example 2-11, 3-[5-amino-8-(2,6-dimethyl-4-pyridyl)-3-oxo-7-phenyl-[1,2,4]triazolo[4,3-c]pyrimidin-2-yl]propanenitrile] | 794 | 15.8
18 | Cc1cc(-c2c(-c3ccccc3)nc(N)n3c(=O)n(CC4CCCOC4)nc23)cc(C)n1 (single isomer, unassigned) [Example 2-81-iso-1, 5-amino-8-(2,6-dimethyl-4-pyridyl)-7-phenyl-2-(tetrahydropyran-3-ylmethyl)-[1,2,4]triazolo[4,3-c]pyrimidin-3-one] | 158 | 2
19 | Cc1cc(-c2c(-c3ccccc3)nc(N)n3c(=O)n(CCN4CCN(C)CC4)nc23)cc(C)n1 [Example 2-102, 5-amino-8-(2,6-dimethyl-4-pyridyl)-2-[2-(4-methylpiperazin-1-yl)ethyl]-7-phenyl-[1,2,4]triazolo[4,3-c]pyrimidin-3-one] | > 3160 | 126
20 | Cc1cc(-c2c(-c3ccccc3)nc(N)n3c(=O)n(CCN4CCCCCC4c4cccn4C)nc23)cc(C)n1 (stereo not drawn) [Example 1-96, 5-amino-8-(2,6-dimethyl-4-pyridyl)-2-[2-[2-(1-methylpyrrol-2-yl)azepan-1-yl]ethyl]-7-phenyl-[1,2,4]triazolo[4,3-c]pyrimidin-3-one] | 251 | 3.98
21 | COc1cccc(Cn2nc3c(-c4cc(C)nc(C)c4)c(-c4ccccc4)nc(N)n3c2=O)n1 [Example 1-6, 5-amino-8-(2,6-dimethyl-4-pyridyl)-2-[(6-methoxy-2-pyridyl)methyl]-7-phenyl-[1,2,4]triazolo[4,3-c]pyrimidin-3-one] | 200 | 0.794
